# Measurements reported in publication PMC10011554, “BET inhibitor trotabresib in heavily pretreated patients with solid tumors and diffuse large B-cell lymphomas” (Nature Communications, 2023).
# Assay: Adverse events, DLTs, MTD and RP2D in phase I study CC-90010-ST-001 (NCI CTCAE v4.03)
# Type: in vivo
# Experimental: The primary endpoints of the study were the safety and tolerability of trotabresib, as well as the MTD and/or RP2D of trotabresib. Safety was assessed using the National Cancer Institute Common Terminology Criteria for Adverse Events v4.03[53].
# The decision to evaluate additional subjects within a dose cohort, a higher dose cohort, intermediate dose cohorts, smaller dose increments, alternate dosing schedules, or declare an MTD will also be determined by the SRC, based on their review of clinical and laboratory safety […]
# 7.2.4. Definition of a Subject Evaluable for DLT
# After the first dose is administered in any cohort during dose escalation, subjects in each cohort […]
# more than one subject per day will be enrolled in a given dose escalation cohort.
# A subject evaluable for DLT is defined as one that: […]
# without experiencing a DLT,
# Subjects non-evaluable for DLT will be replaced. Additional subjects within any dose cohort may be enrolled at the discretion of the SRC. Intra-subject dose escalation will not be allowed during the DLT assessment period.
# 7.2.5. Definition of Maximum Tolerated Dose (MTD) […]
# of MTD is described in Section 7.2.2.
# A variable dose cohort (eg, less frequent dosing) may be evaluated to accurately determine the MTD at the discretion of the SRC.
# 7.2.6. Definition of Dose-Limiting Toxicity (DLT) […]
# used as a guide for the grading of severity of adverse events. A DLT is defined as any of the following toxicities occurring within the DLT assessment unless the event can clearly be […]
# Do se-limiting toxicities are described below:
# • Hyperglycemia meeting any of the following criteria:
# − Grade 3 or greater fasting hyperglycemia (> 250 mg/dL) lasting > 4 days despite optimal medical treatment
# (1 picture or pasted object on this page, not shown here)
# − Hyperglycemia associated with diabetic ketoacidosis or nonketotic hyperosmolar coma regardless of glucose level
# − Hyperglycemia that necessitates dose reduction despite dose interruption and resolution to ≤ grade 1 hyperglycemia within two weeks as described in […]
# • Any Grade 4 non-hematologic toxicity of any duration
# • Any non-hematologic toxicity Grade ≥ 3 EXCEPT for:
# − Grade 3 diarrhea, nausea, or vomiting of ≤ 3 days duration (with optimal medical […]
# − Grade 3 rash of the acneiform, pustular or maculopapular type which resolves to […]
# level with resumption of study drug at the same dose (with optimal medical […]
# − Grade 3 fatigue which resolves to Grade ≤ 2 within 7 days of study drug […]
# the same dose (with optimal medical management).
# • Hematological toxicities as follows:
# − Grade 4 neutropenia lasting > 7 days
# − Grade 4 thrombocytopenia lasting > 7 days, Grade ≥ 3 thrombocytopenia with clinically significant bleeding
# • Any AE, Grade ≥ 2 not specified or exempt above, unless clearly determined to be unrelated to the drug, necessitating dose-level reduction during Cycle 1.
# Isolated laboratory changes without associated clinical signs or symptoms (eg, hypomagnesemia, hypermagnesemia, hypoalbuminemia, hypophosphatemia, lymphocyte count increased or decreased) may not be included in this definition. These findings will be discussed and reviewed […]
# 7.2.7. Criteria for Dose Escalation in the Next Cohort of Subjects
# During Part A, the dose escalation criteria are described in Section 7.2.2.
# 7.2.8. Definition of Stopping Criteria
# During Part A, the dose escalation stopping rules are in Section 7.2.2.
# 7.2.9. Permitted Study Drug Adjustments
# Dose reductions are permitted in any cycle, including Cycle 1.
# • Dose reductions that occur in Cycle 1 during dose escalation will constitute DLT as […]
# [1] = part A (N = 69), 02 Dec 2019 cutoff
# [2] = part A (n=69), as stated in protocol section 7.2.10.1
# [3] = part A, 30 mg 3-days-on/11-days off, 02 Dec 2019 cutoff
# [4] = part A, 45 mg 4-days-on/24-days-off, 02 Dec 2019 cutoff
smiles,measurement,setting,value
Cn1cc(-c2cc(S(C)(=O)=O)ccc2OCC2CC2)c2ccccc2c1=O [trotabresib],TEAE dysgeusia,[1],29.0%
same,TEAE fatigue,[1],24.6%
same,TEAE headache,[1],10.1%
same,TEAE hyperglycemia,[1],21.7%
same,TEAE increased ALT,[1],13.0%
same,TEAE maculopapular rash,[1],10.1%
same,TEAE nausea,[1],40.6%
same,TEAE stomatitis,[1],24.6%
same,TEAE thrombocytopenia,[1],50.7%
same,TEAE vomiting,[1],24.6%
same,serious TEAE anemia,[1],2.9%
same,serious TEAE arthralgia,[1],2.9%
same,serious TEAE cognitive disorder,[1],4.3%
same,serious TEAE decreased platelet count,[1],1.4%
same,serious TEAE diarrhea,[1],2.9%
same,serious TEAE fatigue,[1],2.9%
same,serious TEAE general physical health deterioration,[1],2.9%
same,serious TEAE headache,[1],4.3%
same,serious TEAE noncardiac chest pain,[1],2.9%
same,serious TEAE thrombocytopenia,[1],2.9%
same,subjects with a TEAE leading to death (all not related),[1],10.1%
same,subjects with at least one Grade 3 or 4 TEAE,[1],58.0%
same,subjects with at least one serious TEAE,[1],46.4%
same,subjects with at least one treatment-related Grade 3 or 4 TEAE,[1],33.3%
same,subjects with at least one treatment-related TEAE,[1],87.0%
same,subjects with at least one treatment-related serious TEAE,[1],11.6%
same,treatment-related Grade 3 or 4 TEAE anemia,[1],4.3%
same,treatment-related Grade 3 or 4 TEAE decreased platelet count,[1],2.9%
same,treatment-related Grade 3 or 4 TEAE fatigue,[1],2.9%
same,treatment-related Grade 3 or 4 TEAE hyponatremia,[1],2.9%
same,treatment-related Grade 3 or 4 TEAE increased ALT,[1],2.9%
same,treatment-related Grade 3 or 4 TEAE thrombocytopenia,[1],13.0%
same,treatment-related TEAE anemia,[1],11.6%
same,treatment-related TEAE asthenia,[1],31.9%
same,treatment-related TEAE decreased appetite,[1],17.4%
same,treatment-related TEAE dermatitis acneiform,[1],13.0%
same,treatment-related TEAE diarrhea,[1],39.1%
same,treatment-related TEAE dysgeusia,[1],26.1%
same,treatment-related TEAE fatigue,[1],21.7%
same,treatment-related TEAE hyperglycemia,[1],11.6%
same,treatment-related TEAE nausea,[1],39.1%
same,treatment-related TEAE stomatitis,[1],23.2%
same,treatment-related TEAE thrombocytopenia,[1],46.4%
same,treatment-related TEAE vomiting,[1],17.4%
same,treatment-related serious TEAE anemia,[1],2.9%
same,treatment-related serious TEAE decreased platelet count,[1],1.4%
same,treatment-related serious TEAE diarrhea,[1],2.9%
same,treatment-related serious TEAE fatigue,[1],2.9%
same,treatment-related serious TEAE thrombocytopenia,[1],2.9%
same,Grade 3 or 4 TEAE decreased platelet count,[2],4.3%
same,Grade 3 or 4 TEAE thrombocytopenia,[2],10.1%
same,TEAE decreased platelet count,[2],18.8%
same,subjects with at least one Grade 3 or 4 TEAE,[2],49.3%
same,subjects with at least one TEAE Grade 3 or 4 related to study drug,[3],33.3%
same,subjects with at least one TEAE related to study drug,[3],66.7%
same,subjects with at least one TEAE Grade 3 or 4 related to study drug,[4],28.6%
same,subjects with at least one TEAE related to study drug,[4],85.7%
same,TRAE: ALT increased,"part A, any grade",7.25%
same,TRAE: Anemia,"part A, any grade",11.59%
same,TRAE: Any TRAE,"part A, any grade",86.96%
same,TRAE: Asthenia,"part A, any grade",31.88%
same,TRAE: Decreased appetite,"part A, any grade",17.39%
same,TRAE: Dehydration,"part A, any grade",0%
same,TRAE: Dermatitis acneiform,"part A, any grade",13.04%
same,TRAE: Diarrhoea,"part A, any grade",39.13%
same,TRAE: Dysgeusia,"part A, any grade",26.09%
same,TRAE: Fatigue,"part A, any grade",21.74%
same,TRAE: Hyperglycemia,"part A, any grade",11.59%
same,TRAE: Hypertension,"part A, any grade",1.45%
same,TRAE: Hyponatremia,"part A, any grade",4.35%
same,TRAE: Hypophosphatemia,"part A, any grade",2.9%
same,TRAE: Nausea,"part A, any grade",39.13%
same,TRAE: Neutropenia,"part A, any grade",7.25%
same,TRAE: Platelet count decreased,"part A, any grade",4.35%
same,TRAE: Stomatitis,"part A, any grade",23.19%
same,TRAE: Thrombocytopenia,"part A, any grade",46.38%
same,TRAE: Vomiting,"part A, any grade",17.39%
same,TRAE: ALT increased,"part A, grade 3",1.45%
same,TRAE: Anemia,"part A, grade 3",4.35%
same,TRAE: Any TRAE,"part A, grade 3",26.09%
same,TRAE: Asthenia,"part A, grade 3",1.45%
same,TRAE: Decreased appetite,"part A, grade 3",0%
same,TRAE: Dehydration,"part A, grade 3",0%
same,TRAE: Dermatitis acneiform,"part A, grade 3",0%
same,TRAE: Diarrhoea,"part A, grade 3",1.45%
same,TRAE: Dysgeusia,"part A, grade 3",0%
same,TRAE: Fatigue,"part A, grade 3",2.9%
